Data from ChEMBL document CHEMBL1201862, “PubChem BioAssay data set” (2004).
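Briefly, cells in 96-well plates were exposed to five compound concentrations for 48 h, and endpoints were estimated by linear interpolation. GI50 is the concentration that inhibits growth by half.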 Activity calls are given as the source filed them. No stated cut-off is given here; in the data, active = GI50 up to about 1.1 µM and inactive = higher.

Key:
Assay in all cases: NCI-60 cell line screen, 48 h
[1] = tested on: MDA-MB-435
[2] = tested on: SK-MEL-5
[3] = tested on: RPMI-8226
[4] = tested on: A498
[5] = tested on: HOP-62
[6] = tested on: SW-620
[7] = tested on: Malme-3M
[8] = tested on: NCI-H460
[9] = tested on: MOLT-4
[10] = tested on: U-251
[11] = tested on: NCI-H23
[12] = tested on: EKVX
[13] = tested on: HCC 2998
[14] = tested on: KM12
[15] = tested on: DMS-114
[16] = tested on: SNB-75
[17] = tested on: SNB-78
[18] = tested on: CAKI-1
[19] = tested on: SF-295
[20] = tested on: SK-MEL-2
[21] = tested on: NCI-H522
[22] = tested on: PC-3
[23] = tested on: LOX IMVI
[24] = tested on: XF498
[25] = tested on: M19-MEL
[26] = tested on: Hs-578T
[27] = tested on: UACC-257
[28] = tested on: A549
[29] = tested on: HOP-18
[30] = tested on: UO-31
[31] = tested on: SR
[32] = tested on: M14
[33] = tested on: T47D
[34] = tested on: LXFL 529
[35] = tested on: MDA-MB-231
[36] = tested on: CCRF-CEM
[37] = tested on: HOP-92
[38] = tested on: SN12C
[39] = tested on: OVCAR-5
[40] = tested on: SK-MEL-28
[41] = tested on: DU-145
[42] = tested on: HL-60
[43] = tested on: DMS-273
[44] = tested on: TK-10
[45] = tested on: 786-0
[46] = tested on: SK-OV-3
[47] = tested on: KM-20L2
[48] = tested on: IGROV-1
[49] = tested on: HCT-15
[50] = tested on: UACC-62
[51] = tested on: NCI/ADR-RES
[52] = tested on: SNB-19
[53] = tested on: HT-29
[54] = tested on: BT-549
[55] = tested on: HCT-116
[56] = tested on: NCI-H226
[57] = tested on: MCF7
[58] = tested on: SF-268
[59] = tested on: OVCAR-4
[60] = tested on: DLD-1
[61] = tested on: ACHN
[62] = tested on: COLO 205
[63] = tested on: SF-539
[64] = tested on: RXF 393
[65] = tested on: OVCAR-3
[66] = tested on: OVCAR-8
[67] = tested on: K562

Measured: GI50

SCc1ccc(-c2ccc(CS)cc2)cc1
17.6 µM: [49]
inactive: [1] 5.74 µM | [2] 15.6 µM | [3] 8.77 µM | [4] 36.5 µM | [5] 6.75 µM | [6] 22.2 µM | [7] 16.9 µM | [8] 10.4 µM | [9] 2.14 µM | [10] 15.1 µM | [11] 14.4 µM | [12] 26 µM | [13] 15.6 µM | [14] 3.11 µM | [15] 12.5 µM | [16] 10.7 µM | [17] 18.3 µM | [18] 4.42 µM | [19] 8.97 µM | [20] 19.7 µM | [21] 17.8 µM | [22] 17.4 µM | [23] 4 µM | [24] 20.6 µM | [25] 18.6 µM | [26] 3.98 µM | [27] 21.1 µM | [28] 20.5 µM | [29] 16.4 µM | [30] 18.4 µM | [31] 2.42 µM | [32] 14.3 µM | [33] 19.7 µM | [34] 14.4 µM | [35] 11.2 µM | [36] 1.43 µM | [37] 17.9 µM | [38] 26.3 µM | [39] 12.3 µM | [40] 9.55 µM | [41] > 10 µM | [42] 3.25 µM | [43] 24.2 µM | [44] 24.3 µM | [45] 23.2 µM | [46] 17.6 µM | [47] 23.6 µM | [48] 13.5 µM | [50] 14.9 µM | [51] 7.16 µM | [52] 18.3 µM | [53] 26.9 µM | [54] 2.42 µM | [55] 7.55 µM | [56] 18.4 µM | [57] 5.32 µM | [58] 3.33 µM | [59] 6.38 µM | [60] 17 µM | [61] 18.7 µM | [62] 18 µM | [63] 18 µM | [64] 16.8 µM | [65] 16.4 µM | [66] 21.3 µM | [67] 4.07 µM
